Where no end group is shown, it is not given here. Side-chain parts run from the residue outwards. CX1X1X1RKRLDRIAR‑NH2 = not defined here; bMB = bis-maleimidobutane
What was measured:
Format in all cases: cell-based
[1] = system: human fetal osteoblast cell line (hFOB); assay: Cell growth study, MTS relative cell number, hFOB cells; details: for % OF CONTROL VALUE / MEAN ABSORBANCE: hFOB, 3 days in culture, MTS
Experimental: (§1) The synthetic branched peptide construct of Example 4 was tested in cell growth studies, to determine the ability of the synthetic branched peptide construct to stimulate cell growth. Cell growth was monitored using a commercially available kit (Promega Corporation, Madison, Wis.) based on a tetrazolium compound (3-(4,5-dimethylthiazol-2-yl)-5-(3-carboxymethoxyphenyl)-2-(4-sulfophenyl)-2H-tetrazolium, inner salt (MTS). Aliquots of 10^3 cells were seeded into wells of 96-well plates and allowed to attach. The medium was then replaced with a low serum medium containing between 0 and 10 μg/mL of the synthetic branched peptide construct of Example 4. After 3 days in culture, the relative cell number was monitored using MTS following the directions of the manufacturer. Statistical significance was determined using ANOVA followed by post-hoc multiple comparisons versus control group (Dunnett's Method).
(§2) MC3T3E1 osteoblastic cells, C3H10T1/2 mouse pluripotent stem cells, C2C12 murine myoblasts, and cells from a human fetal osteoblast cell line (hFOB) were obtained from the American Type Culture Collection (Manassas, Va.) and were maintained in DMEM:F12 medium containing newborn calf serum and antibiotics. MC3T3E1, C3H10T1/2, and hFOB cells were positive for growth induction by synthetic branched peptide construct of […] as shown in Table 3 below. The effective concentration was between 1 and 10 μg/mL. C2C12 was negative for growth using the synthetic branched peptide construct of Example 4.

[2] = system: MC3T3E1 osteoblastic cells; assay: Cell growth study, MTS relative cell number, MC3T3E1 cells; details: for % OF CONTROL VALUE / MEAN ABSORBANCE: 3 days in culture, MTS
Experimental: as §1, §2

[3] = system: C3H10T1/2 mouse pluripotent stem cells; assay: Cell growth study, MTS relative cell number, C3H10T1/2 cells; details: for % OF CONTROL VALUE / MEAN ABSORBANCE: 3 days in culture, MTS
Experimental: as §1, §2

C2C12 murine myoblasts = assay: Cell growth study, MTS relative cell number, C2C12 cells; details: for % OF CONTROL VALUE / MEAN ABSORBANCE: 3 days in culture, MTS
Experimental: as §1, §2

## NH2-LYVDFSDVGWNDWC(bMB-CX1X1X1RKRLDRIAR-amide)-AISMLYLDENEKVVL-amide (chain 1 H-LYVDFSDVGWNDWC([bMB-CX1X1X1RKRLDRIAR‑NH2]); chain 2 AISMLYLDENEKVVL-NH2; reading uncertain; also: chains 1 and 2 form one continuous backbone (C14 of chain 1 peptide-bonded to A1 of chain 2), printed as NH2-LYVDFSDVGWNDWC(bMB-CX1X1X1RKRLDRIAR-amide)-AISMLYLDENEKVVL-amide) [Example 4, heterodimeric BMP-2 analog branched via cysteine and 1,4-bis-maleimidobutane; X1 is 6-aminohexanoic acid]
[1]; hFOB cells, 0 to 10 μg/mL, 3 days
  growth induction: positive
[1]; 0.5 μg/mL
  % OF CONTROL VALUE: 121%
  MEAN ABSORBANCE: 0.58
[1]; 1 μg/mL
  % OF CONTROL VALUE: 131%
  MEAN ABSORBANCE: 0.62
[1]; 2 μg/mL
  % OF CONTROL VALUE: 135%
  MEAN ABSORBANCE: 0.64
[1]; 5 μg/mL
  % OF CONTROL VALUE: 127%
  MEAN ABSORBANCE: 0.60
[1]; 10 μg/mL
  % OF CONTROL VALUE: 130%
  MEAN ABSORBANCE: 0.62
[2]; MC3T3E1, 0.5 μg/mL
  % OF CONTROL VALUE: 103%
  MEAN ABSORBANCE: 0.74
[2]; MC3T3E1, 1 μg/mL
  % OF CONTROL VALUE: 99%
  MEAN ABSORBANCE: 0.71
[2]; MC3T3E1, 2 μg/mL
  % OF CONTROL VALUE: 138%
  MEAN ABSORBANCE: 0.99
[2]; MC3T3E1, 5 μg/mL
  % OF CONTROL VALUE: 133%
  MEAN ABSORBANCE: 0.96
[2]; MC3T3E1, 10 μg/mL
  % OF CONTROL VALUE: 134%
  MEAN ABSORBANCE: 0.96
[2]; MC3T3E1 cells, 0 to 10 μg/mL, 3 days
  growth induction: positive
[3]; C3H10T1/2, 0.5 μg/mL
  % OF CONTROL VALUE: 147%
  MEAN ABSORBANCE: 0.41
[3]; C3H10T1/2, 1 μg/mL
  % OF CONTROL VALUE: 152%
  MEAN ABSORBANCE: 0.42
[3]; C3H10T1/2, 2 μg/mL
  % OF CONTROL VALUE: 158%
  MEAN ABSORBANCE: 0.44
[3]; C3H10T1/2, 5 μg/mL
  % OF CONTROL VALUE: 156%
  MEAN ABSORBANCE: 0.43
[3]; C3H10T1/2, 10 μg/mL
  % OF CONTROL VALUE: 144%
  MEAN ABSORBANCE: 0.40
[3]; C3H10T1/2 cells, 0 to 10 μg/mL, 3 days
  growth induction: positive
C2C12 murine myoblasts; C2C12, 0.5 μg/mL
  % OF CONTROL VALUE: 99%
  MEAN ABSORBANCE: 0.30
C2C12 murine myoblasts; C2C12, 1 μg/mL
  % OF CONTROL VALUE: 101%
  MEAN ABSORBANCE: 0.30
C2C12 murine myoblasts; C2C12, 2 μg/mL
  % OF CONTROL VALUE: 99%
  MEAN ABSORBANCE: 0.30
C2C12 murine myoblasts; C2C12, 5 μg/mL
  % OF CONTROL VALUE: 99%
  MEAN ABSORBANCE: 0.30
C2C12 murine myoblasts; C2C12, 10 μg/mL
  % OF CONTROL VALUE: 90%
  MEAN ABSORBANCE: 0.27
C2C12 murine myoblasts; C2C12 cells, 0 to 10 μg/mL, 3 days
  growth induction: negative
